# From patent US20160024051A1, “SALTS AND SOLID FORMS OF ISOQUINOLINONES AND COMPOSITION COMPRISING AND METHODS OF USING THE SAME” (INFINITY PHARMACEUTICALS, INC., priority 2013, published 2016)
# Key:
# [1] = Thermodynamic aqueous solubility; format: physicochemical
# [2] = Gravimetric vapour sorption (GVS); format: physicochemical
# Method: Sorption isotherms were obtained using a Hiden IGASorp moisture sorption analyser, controlled by CFRSorp software. The sample temperature was maintained at 25° C. by a Huber re-circulating water bath. The humidity was controlled by mixing streams of dry and wet nitrogen, with a total flow rate of 250 ml/min. The relative humidity (RH) was measured by a calibrated Vaisala RH probe (dynamic range of 0-95% RH), located near the sample. The weight change, (mass relaxation) of the sample as a function of % RH was constantly monitored by the microbalance (accuracy ±0.001 mg). Typically 10-20 mg of sample was placed in a tared mesh stainless steel basket under ambient conditions. The sample was loaded and unloaded at 40% RH and 25° C. (typical room conditions). A moisture sorption isotherm was performed as outlined below (2 scans giving 1 complete cycle). The standard isotherm was performed at 25° C. at 10% RH intervals over a 0-90% RH range.
# The software uses a least squares minimisation procedure together with a model of the mass relaxation, to predict an asymptotic value. The measured mass relaxation value must be within 5% of that predicted by the software, before the next % RH value is selected. The minimum equilibration time was set to 1 hour and the maximum to 4 hours. The sample was recovered after completion of the isotherm and re-analysed by XRPD.
# [3] = Storage at 25° C./93% RH for 1 week, re-analysis by XRPD/HPLC; format: physicochemical; settings: for stability on storage at 25° C./93% RH: 1 week
# [4] = Storage at 40° C./75% RH (elevated humidity) for 1 week, re-analysis by XRPD/HPLC
# Method: The crystalline solids were filtered, dried at ambient conditions, and stored at 40° C./75% RH for 1 week and analyzed by ^1H NMR/IC.
# (§2) Samples from the screen using amorphous free base Compound 1 were analysed by ^1H-NMR and DSC, and re-analysis by XRPD was also carried out after drying at 50° C./vacuum and storage at 40° C./75% RH (the same sample was dried and stored at elevated humidity).
# [5] = Polymorphism study: maturation (temperature cycling RT to 50° C.) in solvents, XRPD; format: physicochemical; settings: three days
# Method: One of 21 solvents was added to each vial in a number of aliquots (up to 30 volumes), with shaking. All the samples were then placed under maturation between RT to 50° C. (4 hours at each temperature) for 3 days. After maturation the samples were analysed by XRPD. Clear solutions were cooled to −20° C. (freezer). If no precipitation occurred samples were evaporated at RT.
# Samples were placed under maturation between RT-50° C. (4 hours cycle) for 3 days. After maturation the samples were analyzed by XRPD. Clear solutions were then cooled to −20° C. (freezer). If no precipitation occurred, samples were evaporated at RT.
# The corresponding solvents and solvent mixtures were added in portions of (a total of) 5, 10, 20, and 30 volumes at 50° C., with shaking, aiming for clear solutions. After each addition, the vials were allowed to shake for 20 minutes, after which observations were made. Solutions were allowed to evaporate, whereas slurries were set for 8 hour temperature cycling maturation, between RT and 50° C., for 5 days.
# The oils obtained by solvent evaporation were used for the maturation screen. Anhydrous solvents (5 volumes; 100 μL) were used in order to minimise the amount of water present. Any solutions were allowed to slowly evaporate, whereas slurries were set for 8 hour temperature cycling maturation, between RT and 50° C. […] These were matured for a further 24 hours before performing XRPD analysis.
# The selected solvents and solvent mixtures (5 to 20 volumes) were added with stirring. Any solutions were allowed to slowly evaporate, whereas slurries were set for 8 hour temperature cycling maturation, between RT and 50° C., for 2 days.
# Crystals were ground in order to analyse them by XRPD. Suspensions were set for temperature cycling for a total of five days after which time XRPD analysis was carried out.
# [6] = PK evaluation in Wistar rat; format: in vivo
# Method: (§1) For example, Compound 1 bis-hydrogen sulfate monohydrate was evaluated in CD-1 mouse, Wistar rat, Cyno monkey, and Beagle dog. Cross species allometric scaling of CL (drug clearance) and Vss (volume at steady state) predicts low CL, high Vss and long T112 for Compound 1 in humans.
# [7] = PK evaluation in CD-1 mouse; format: in vivo
# Method: as §1
# [8] = PK evaluation in Beagle dog; format: in vivo
# Method: as §1
# [9] = PK evaluation in Cyno monkey; format: in vivo
# Method: as §1
# [10] = Stability of Hydrate Form 2: maturation in water or acetic acid: water 1:3 at constant temperature; format: physicochemical; settings: 40 hours maturation
# Method: Both solids obtained from maturation at 25° C.
# [11] = Drying at 50° C./vacuum, re-analysis by XRPD; format: physicochemical
# Method: as §2
structure (smiles),measurement,setting,value
COc1cc(-c2cccc3cc([C@H](C)Nc4nc(N)ncc4C#N)n(-c4ccccc4)c(=O)c23)ccn1 [Form 1 of the free base of Compound 1],Thermodynamic aqueous solubility,[1]; at pH 6.85,4 µg/mL
same,GVS: moisture on loading,[2],0.7 % w/w
same,GVS behaviour (hydration / desolvation),[2]; listed as Free base Form 1,hydrates to a higher hydrate above 80% RH
same,GVS: uptake between 80-90% RH,[2]; with hysteresis on desorption,4.0 % w/w
same,stability on storage at 25° C./93% RH,[3],converts to Form 3 of the free base of Compound 1
same,stability on storage at 25° C./93% RH,[3]; listed as Free base Form 1,conversion to Form 3
same,Stability at 25° C./93% RH,[3]; form,Conversion to Form 3 (FIG. 31)
same,Stability at 40° C./75% RH,"[4]; 1 week, form",No changes in form after 1 week
same,XRPD form after maturation in acetic acid: water 1:1,[5]; listed as hydrate Form 1 of free base Compound 1,Form 6
COc1cc(-c2cccc3cc([C@H](C)Nc4nc(N)ncc4C#N)n(-c4ccccc4)c(=O)c23)ccn1,XRPD (C2) post Aqueous solubility,[1]; residual solid,"Low cryst. 1,2-ethanedisulfonic"
same,Thermodynamic aqueous solubility,"[1]; salts scaled-up at 0.5 gram, listed as 1-2-Ethanedisulfonic acid",6200 µg/mL
same,XRPD post GVS (C2),[2],Unchanged
same,GVS Single cycle,"[2]; hygroscopicity in words, 25° C., listed as 1-2-Ethanedisulfonic acid",Moderately hygroscopic
same,Storage 25° C./93% RH for 1 week: HPLC Purity,[3]; salts scaled-up at 0.5 gram,HPLC Purity: Unchanged
same,Storage 25° C./93% RH for 1 week: XRPD (D8),[3]; salts scaled-up at 0.5 gram,XRPD (D8): Unchanged
same,Storage 40° C./75% RH for 1 week: HPLC Purity,[4]; salts scaled-up at 0.5 gram,HPLC Purity: Unchanged
same,Storage 40° C./75% RH for 1 week: XRPD (D8),[4]; salts scaled-up at 0.5 gram,XRPD (D8): Unchanged
COc1cc(-c2cccc3cc([C@H](C)Nc4nc(N)ncc4C#N)n(-c4ccccc4)c(=O)c23)ccn1.O.O=S(=O)(O)O.O=S(=O)(O)O,AUClast,"[6]; IV, 2 mg/kg",2061 ng·h/mL
same,Cl,"[6]; IV, 2 mg/kg",17 mL/min/kg
same,Cmax,"[6]; IV, 2 mg/kg",799 ng/mL
same,T1/2,"[6]; IV, 2 mg/kg",2.3 h
same,Vss,"[6]; IV, 2 mg/kg",2.4 L/kg
same,AUClast,"[6]; PO, 10 mg/kg",5968 ng·h/mL
same,Cmax,"[6]; PO, 10 mg/kg",787 ng/mL
same,Foral,"[6]; PO, 10 mg/kg",58%
same,T1/2,"[6]; PO, 10 mg/kg",3.3 h
same,Tmax,"[6]; PO, 10 mg/kg",1.3 h
same,AUClast,"[7]; IV, 5 mg/kg",1012 ng·h/mL
same,Cl,"[7]; IV, 5 mg/kg",82 mL/min/kg
same,Cmax,"[7]; IV, 5 mg/kg",1417 ng/mL
same,T1/2,"[7]; IV, 5 mg/kg",0.6 h
same,Vss,"[7]; IV, 5 mg/kg",2.3 L/kg
same,AUClast,"[7]; PO, 10 mg/kg",856 ng·h/mL
same,Cmax,"[7]; PO, 10 mg/kg",647 ng/mL
same,Foral,"[7]; PO, 10 mg/kg",45%
same,T1/2,"[7]; PO, 10 mg/kg",1.7 h
same,Tmax,"[7]; PO, 10 mg/kg",0.25 h
same,AUClast,"[8]; IV, 1 mg/kg",4746 ng·h/mL
same,Cl,"[8]; IV, 1 mg/kg",2.5 mL/min/kg
same,Cmax,"[8]; IV, 1 mg/kg",424 ng/mL
same,T1/2,"[8]; IV, 1 mg/kg",14.6 h
same,Vss,"[8]; IV, 1 mg/kg",2.9 L/kg
same,AUClast,"[8]; PO, 5 mg/kg",17626 ng·h/mL
same,Cmax,"[8]; PO, 5 mg/kg",1830 ng/mL
same,Foral,"[8]; PO, 5 mg/kg",74%
same,T1/2,"[8]; PO, 5 mg/kg",8.0 h
same,Tmax,"[8]; PO, 5 mg/kg",2.3 h
same,AUClast,"[9]; IV, 1 mg/kg",2534 ng·h/mL
same,Cl,"[9]; IV, 1 mg/kg",6.5 mL/min/kg
same,Cmax,"[9]; IV, 1 mg/kg",581 ng/mL
same,T1/2,"[9]; IV, 1 mg/kg",4.1 h
same,Vss,"[9]; IV, 1 mg/kg",1.6 L/kg
same,AUClast,"[9]; PO, 5 mg/kg",12790 ng·h/mL
same,Cmax,"[9]; PO, 5 mg/kg",2365 ng/mL
same,Foral,"[9]; PO, 5 mg/kg",100%
same,T1/2,"[9]; PO, 5 mg/kg",4.0 h
same,Tmax,"[9]; PO, 5 mg/kg",2 h
COc1cc(-c2cccc3cc([C@H](C)Nc4nc(N)ncc4C#N)n(-c4ccccc4)c(=O)c23)ccn1 [amorphous free base of Compound 1],Stability at 25° C./93% RH,"[3]; after 1 week, XRPD",No changes after 1 week
same,Stability at 40° C./75% RH,"[4]; after 1 week, XRPD",No changes after 1 week
same,solid form after storage at elevated humidity,"[4]; elevated humidity conditions, not specified in the sentence",No crystallisation
same,XRPD form after maturation in acetic acid: water 1:1,[5]; listed as amorphous material,Form 6
COc1cc(-c2cccc3cc([C@H](C)Nc4nc(N)ncc4C#N)n(-c4ccccc4)c(=O)c23)ccn1.O [Form 2 of free base of Compound 1],XRPD,"[10]; Acetic acid:water 1:3, 25° C.",Hydrate Form 2
same,XRPD,"[10]; Water, 25° C.",Hydrate Form 2
same,XRPD,"[10]; Water, 90° C.",Hydrate Form 2
CC(=O)O.COc1cc(-c2cccc3cc([C@H](C)Nc4nc(N)ncc4C#N)n(-c4ccccc4)c(=O)c23)ccn1.COc1cc(-c2cccc3cc([C@H](C)Nc4nc(N)ncc4C#N)n(-c4ccccc4)c(=O)c23)ccn1 [Batch 2 of Form 6],Stability at 25° C./93% RH,"[3]; after 1 week, XRPD",Very slight changes
same,Stability at 40° C./75% RH,"[4]; after 1 week, XRPD",Very slight changes
COc1cc(-c2cccc3cc([C@H](C)Nc4nc(N)ncc4C#N)n(-c4ccccc4)c(=O)c23)ccn1 [Form 5 of the free base of Compound 1],XRPD after Storage at 40° C./75% RH,"[4]; screening sample from 2-MeTHF, after drying",No changes
same,XRPD after Storage at 40° C./75% RH,"[4]; screening sample from Acetone, after drying",No changes
same,XRPD after Storage at 40° C./75% RH,"[4]; screening sample from Acetonitrile, after drying",No changes; NMR
same,XRPD after Storage at 40° C./75% RH,"[4]; screening sample from DCM, after drying",No changes
same,XRPD after Storage at 40° C./75% RH,"[4]; screening sample from DCM:MeOH 1:1, after drying",No changes
same,XRPD after Storage at 40° C./75% RH,"[4]; screening sample from DME, after drying",No changes
same,XRPD after Storage at 40° C./75% RH,"[4]; screening sample from EtOAc, after drying",No changes
same,XRPD after Storage at 40° C./75% RH,"[4]; screening sample from EtOH, after drying",No changes
same,XRPD after Storage at 40° C./75% RH,"[4]; screening sample from EtOH/5% water, after drying",No changes
same,XRPD after Storage at 40° C./75% RH,"[4]; screening sample from IPA, after drying",No changes
same,XRPD after Storage at 40° C./75% RH,"[4]; screening sample from MIBK, after drying",No changes
same,XRPD after Storage at 40° C./75% RH,"[4]; screening sample from MeCN/5% water, after drying",No changes
same,XRPD after Storage at 40° C./75% RH,"[4]; screening sample from MeOH, after drying",No changes
same,XRPD after Storage at 40° C./75% RH,"[4]; screening sample from TBME, after drying",No changes
same,XRPD after Storage at 40° C./75% RH,"[4]; screening sample from THF, after drying",No changes; NMR
same,XRPD after Storage at 40° C./75% RH,"[4]; screening sample from THF/5% water, after drying",No changes
same,XRPD after drying at 50° C./vacuum,[11]; screening sample from 2-MeTHF,No changes
same,XRPD after drying at 50° C./vacuum,[11]; screening sample from Acetone,No changes
same,XRPD after drying at 50° C./vacuum,[11]; screening sample from Acetonitrile,No changes
same,XRPD after drying at 50° C./vacuum,[11]; screening sample from DCM,No changes
same,XRPD after drying at 50° C./vacuum,[11]; screening sample from DCM:MeOH 1:1,No changes
same,XRPD after drying at 50° C./vacuum,[11]; screening sample from DME,No changes
same,XRPD after drying at 50° C./vacuum,[11]; screening sample from EtOAc,No changes
same,XRPD after drying at 50° C./vacuum,[11]; screening sample from EtOH,No changes
same,XRPD after drying at 50° C./vacuum,[11]; screening sample from EtOH/5% water,No changes
same,XRPD after drying at 50° C./vacuum,[11]; screening sample from IPA,No changes
same,XRPD after drying at 50° C./vacuum,[11]; screening sample from MIBK,No changes
same,XRPD after drying at 50° C./vacuum,[11]; screening sample from MeCN/5% water,No changes
same,XRPD after drying at 50° C./vacuum,[11]; screening sample from MeOH,No changes
same,XRPD after drying at 50° C./vacuum,[11]; screening sample from TBME,No changes
same,XRPD after drying at 50° C./vacuum,[11]; screening sample from THF,No changes
same,XRPD after drying at 50° C./vacuum,[11]; screening sample from THF/5% water,No changes
COc1cc(-c2cccc3cc([C@H](C)Nc4nc(N)ncc4C#N)n(-c4ccccc4)c(=O)c23)ccn1 [Form 4 of the free base of Compound 1],GVS behaviour (hydration / desolvation),"[2]; text statements, listed as Form 4","hydrates above 80% RH, but reversibly dehydrates back at 40% RH"
same,XRPD after Storage at 40° C./75% RH,"[4]; screening sample from H2O, after drying",No changes
same,XRPD after drying at 50° C./vacuum,[11]; screening sample from H2O,No changes
